16 compounds from PubChem BioAssay AID328 (DTP/NCI, 2004) can be followed below.

This assay has as its system BDF1 mice, P388 leukemia ip, median survival T/C. As to the kind of experiment: NCI In Vivo Anticancer Drug Screen. Data for tumor model P388 Leukemia (intraperitoneal) in B6D2F1 (BDF1) mice. Conditions: endpoint: median survival time, higher = longer survival. Summed up: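 In tumour-bearing mice, survival after compound treatment is set against the vehicle group and given as a quotient.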

Where [1] appears, read: dose: 66.0 mg/kg/injection, schedule: Q01DX009 (ip), vehicle: saline.
The mark [2] stands for this setting: dose: 6.25 mg/kg/injection, schedule: Q01DX009 (ip), vehicle: saline with Tween-80.
Where [3] appears, read: dose: 12.5 mg/kg/injection, schedule: Q01DX009 (ip), vehicle: saline with Tween-80.

Structures are written as SMILES. Several values for one entry are separate records, joined by “and”; a condition that tells them apart may be missing. Equal values may be shown once. Toxic doses and inconclusive results are not listed.

Turning to `O=C1C=CC(=O)C23CC=CCC12C(=O)c1ccccc1C3=O` (stereo not drawn), the T/C (dose: 6.25 mg/kg/injection, schedule: Q04DX003 (ip), vehicle: water) is 107 % of control; the T/C (dose: 12.5 mg/kg/injection, schedule: Q04DX003 (ip), vehicle: water) was 107 % of control; the T/C (dose: 25.0 mg/kg/injection, schedule: Q04DX003 (ip), vehicle: water) was 92 % of control.
For `CC1CCC2(OC1)OC1CC3C4CCC5CC(O)C(O)CC5(C)C4CCC3(C)C1C2C` (stereo not drawn), the T/C is, setting by setting: (dose: 100.0 mg/kg/injection, schedule: Q04DX003 (ip), vehicle: other) 91 % of control; (dose: 200.0 mg/kg/injection, schedule: Q04DX003 (ip), vehicle: other) 87 % of control; (dose: 400.0 mg/kg/injection, schedule: Q04DX003 (ip), vehicle: other) 87 % of control.
With `C#CCOCC1CNC(=S)O1` (stereo not drawn), the T/C (dose: 100.0 mg/kg/injection, schedule: Q01DX009 (ip), vehicle: saline with Tween-80) was 100 % of control; the T/C (dose: 200.0 mg/kg/injection, schedule: Q01DX009 (ip), vehicle: saline with Tween-80) is 100 % of control; the T/C (dose: 400.0 mg/kg/injection, schedule: Q01DX009 (ip), vehicle: saline with Tween-80) is 100 % of control.
For `CCOC(=O)c1[nH]cnc1/N=N/N(C)CCO`, the T/C reads like this: (dose: 14.0 mg/kg/injection, schedule: Q01DX009 (ip), vehicle: saline) 104 % of control; (dose: 21.0 mg/kg/injection, schedule: Q01DX009 (ip), vehicle: saline) 100 % of control; under setting [1], 115 % of control; (dose: 264.0 mg/kg/injection, schedule: Q01DX009 (ip), vehicle: saline with Tween-80) 113 % of control; (dose: 600.0 mg/kg/injection, schedule: Q01DX009 (ip), vehicle: saline with Tween-80) 118 % of control; (dose: 600.0 mg/kg/injection, schedule: Q01DX009 (ip), vehicle: saline) 163 % of control.
Take `O=C(NC1CCCC2C(NC(=O)c3ccccc3)CCCC12)c1ccccc1` (stereo not drawn): the T/C by setting is: under setting [1], 120 % of control; (dose: 100.0 mg/kg/injection, schedule: Q01DX001 (ip), vehicle: saline) 104 % of control; (dose: 100.0 mg/kg/injection, schedule: Q01DX009 (ip), vehicle: saline) 100 % of control and 109 % of control; (dose: 150.0 mg/kg/injection, schedule: Q01DX009 (ip), vehicle: saline) 100 % of control and 109 % of control; (dose: 200.0 mg/kg/injection, schedule: Q01DX001 (ip), vehicle: saline) 95 % of control; (dose: 200.0 mg/kg/injection, schedule: Q01DX009 (ip), vehicle: saline) 115 % of control. Besides, the T/C by setting is: (dose: 400.0 mg/kg/injection, schedule: Q01DX001 (ip), vehicle: saline) 104 % of control; (dose: 400.0 mg/kg/injection, schedule: Q01DX009 (ip), vehicle: saline) 100 % of control.
As for `CNC1C(OC2C(OC3C(O)C(O)C(N=C(N)N)C(O)C3N=C(N)N)OC(C)C2(O)C=O)OC(CO)C(O)C1O` (stereo not drawn), the T/C (dose: 100.0 mg/kg/injection, schedule: Q01DX009 (ip), vehicle: water) was 103 % of control; the T/C (dose: 200.0 mg/kg/injection, schedule: Q01DX009 (ip), vehicle: water) was 112 % of control; the T/C (dose: 400.0 mg/kg/injection, schedule: Q01DX009 (ip), vehicle: water) was 103 % of control.
For `COc1cc2c(cc1OC)C(C)=NCC2`, the T/C by setting is: (dose: 3.0 mg/kg/injection, schedule: Q01DX001 (ip), vehicle: saline) 104 % of control; (dose: 6.0 mg/kg/injection, schedule: Q01DX001 (ip), vehicle: saline) 104 % of control; (dose: 12.0 mg/kg/injection, schedule: Q01DX001 (ip), vehicle: saline) 108 % of control; (dose: 12.0 mg/kg/injection, schedule: Q01DX009 (ip), vehicle: saline) 100 % of control; (dose: 12.0 mg/kg/injection, schedule: Q04DX003 (ip), vehicle: saline) 95 % of control; (dose: 25.0 mg/kg/injection, schedule: Q01DX001 (ip), vehicle: saline) 104 % of control. Moreover, the T/C is 100 % of control (dose: 25.0 mg/kg/injection, schedule: Q01DX009 (ip), vehicle: saline); 104 % of control (dose: 25.0 mg/kg/injection, schedule: Q04DX003 (ip), vehicle: saline); 108 % of control (dose: 50.0 mg/kg/injection, schedule: Q01DX001 (ip), vehicle: saline); 95 % of control (dose: 50.0 mg/kg/injection, schedule: Q01DX009 (ip), vehicle: saline); 100 % of control (dose: 50.0 mg/kg/injection, schedule: Q04DX003 (ip), vehicle: saline).
For the compound `COc1cccc2c1C(=O)c1c(O)c3c(c(O)c1C2=O)C[C@@](O)(C(=O)COC(=O)c1cccnc1)C[C@@H]3OC1CC(N)C(O)C(C)O1` (stereo partly drawn), the T/C was 195 % of control (dose: 1.32 mg/kg/injection, schedule: Q01DX009 (ip), vehicle: saline) and 237 % of control (dose: 2.0 mg/kg/injection, schedule: Q01DX009 (ip), vehicle: saline).
As for `O=C(Nc1ccc(C2=NCCCN2)cc1)c1ccc(NC(=O)c2ccc(C3=NCCCN3)cc2)cc1`, the T/C by setting is: (dose: 13.2 mg/kg/injection, schedule: Q04DX003 (ip), vehicle: saline with Tween-80) 160 % of control and 168 % of control; (dose: 20.0 mg/kg/injection, schedule: Q04DX003 (ip), vehicle: saline with Tween-80) 181 % of control and 220 % of control; (dose: 30.0 mg/kg/injection, schedule: Q04DX003 (ip), vehicle: saline with Tween-80) 263 % of control and 300 % of control.
As for `CN1CC(=O)N=C1N`, the T/C runs as follows: (dose: 100.0 mg/kg/injection, schedule: Q01DX009 (ip), vehicle: Klucel (hydroxypropylcellulose) (HPC)) 90 % of control; (dose: 200.0 mg/kg/injection, schedule: Q01DX009 (ip), vehicle: Klucel (hydroxypropylcellulose) (HPC)) 95 % of control; (dose: 400.0 mg/kg/injection, schedule: Q01DX009 (ip), vehicle: Klucel (hydroxypropylcellulose) (HPC)) 100 % of control.
On to `Cc1ccc2c(c1)CN(Cc1ccccc1)CO2`, for which the T/C was 104 % of control (dose: 100.0 mg/kg/injection, schedule: Q04DX003 (ip), vehicle: Klucel (hydroxypropylcellulose) (HPC)); 100 % of control (dose: 200.0 mg/kg/injection, schedule: Q04DX003 (ip), vehicle: Klucel (hydroxypropylcellulose) (HPC)); 100 % of control (dose: 400.0 mg/kg/injection, schedule: Q04DX003 (ip), vehicle: Klucel (hydroxypropylcellulose) (HPC)).
As for `CC(C)C1=CC2=C[C@H](O)[C@H]3C(C)(C)CCC[C@]3(C)C2=C(O)C1=O`, the T/C is 100 % of control (dose: 2.0 mg/kg/injection, schedule: Q01DX010 (ip), vehicle: carboxymethylcellulose (CMC)); 112 % of control (dose: 2.2 mg/kg/injection, schedule: Q01DX010 (ip), vehicle: carboxymethylcellulose (CMC)); 116 % of control (dose: 3.3 mg/kg/injection, schedule: Q01DX010 (ip), vehicle: carboxymethylcellulose (CMC)); 120 % of control (dose: 5.0 mg/kg/injection, schedule: Q01DX010 (ip), vehicle: carboxymethylcellulose (CMC)); 100 % of control (dose: 10.0 mg/kg/injection, schedule: Q01DX010 (ip), vehicle: carboxymethylcellulose (CMC)); 115 % of control (dose: 10.0 mg/kg/injection, schedule: Q01DX010 (ip), vehicle: other). For the setting “dose: 20.0 mg/kg/injection, schedule: Q01DX010 (ip), vehicle: carboxymethylcellulose (CMC)”, the T/C is 110 % of control.
For `FC(F)(F)C(F)(F)C(F)(F)c1nc2nc(Cl)c(Cl)nc2[nH]1`, the T/C runs as follows: (dose: 3.12 mg/kg/injection, schedule: Q01DX009 (ip), vehicle: saline with Tween-80) 115 % of control; under setting [2], 105 % of control; under setting [3], 95 % of control; (dose: 50.0 mg/kg/injection, schedule: Q04DX003 (ip), vehicle: saline with Tween-80) 95 % of control; (dose: 100.0 mg/kg/injection, schedule: Q04DX003 (ip), vehicle: saline with Tween-80) 90 % of control.
`CNC(=S)N/N=C(\C)c1ccccn1`: the T/C was 102 % of control under setting [2]; 121 % of control under setting [3]; 102 % of control (dose: 25.0 mg/kg/injection, schedule: Q01DX009 (ip), vehicle: saline with Tween-80).
On to `CCC[CH2][Sn]1([CH2]CCC)[O]OC(c2ccc(OC)cc2)[O]1` (stereo not drawn), for which the T/C is 112 % of control (dose: 3.12 mg/kg/injection, schedule: Q01DX009 (sc), vehicle: olive oil, sesame oil, peanut oil) and 99 % of control (dose: 6.25 mg/kg/injection, schedule: Q01DX009 (sc), vehicle: olive oil, sesame oil, peanut oil).
As to `Cn1nc([N+](=O)[O-])sc1=N`, the T/C reads like this: (dose: 50.0 mg/kg/injection, schedule: Q01DX001 (ip), vehicle: saline sonified) 105 % of control; (dose: 100.0 mg/kg/injection, schedule: Q01DX001 (ip), vehicle: saline sonified) 105 % of control; (dose: 200.0 mg/kg/injection, schedule: Q01DX001 (ip), vehicle: saline sonified) 110 % of control.
